Legend:
[1] = Pharmacokinetics in cynomolgus monkeys, single intravenous injection; format: in vivo; conditions: male, cynomolgus monkey, plasma, 1 mg/kg single intravenous injection
Procedure: Objective: To Study Pharmacokinetics of the Compound in Cynomolgus Monkeys
Experimental material: Cynomolgus Monkeys (male, 2.5-4 kg, greater than or equal to 2 years, Jingang Biotech)
(§1) Pharmacokinetic profiles of the compound were tested by intravenous administration in monkeys according to the standard protocol. In the study, the candidate compound was prepared as a clear solution, and was administered to cynomolgus monkeys at 1 mg/kg by single intravenous injection. A vehicle for intravenous injection was a 10% hydroxypropyl ß-cyclodextrin aqueous solution. Whole blood samples were collected at 0.033, 0.083, 0.25, 0.5, 1, 2, 4, 8, 12, and 24 hours, respectively, centrifuged at 3000 r for 10 min, and separated from supernatant to obtain plasma samples. 20 μL of plasma samples were mixed with 400 μL of acetonitrile precipitated proteins containing an internal standard, and 2 μL of the supernatant was injected by centrifugation. Plasma concentrations were quantified by LC-MS/MS analysis, and pharmacokinetic parameters, such as clearance, half-life, and area under the concentration-time curve, etc. were calculated.

CYP1A2 = biological target: T1, CYP1A2 (Homo sapiens, UniProt P05177); assay: Inhibition of human liver microsomal cytochrome P450 CYP1A2; format: in vitro ADME; conditions: human liver microsomes, probe substrate, NADPH
T1 construct: fused human liver microsomes were selected as a CYP450 enzyme source; from tissue; host or cells: pooled ("fused") human liver microsomes
T1 sequence (P05177 1-516): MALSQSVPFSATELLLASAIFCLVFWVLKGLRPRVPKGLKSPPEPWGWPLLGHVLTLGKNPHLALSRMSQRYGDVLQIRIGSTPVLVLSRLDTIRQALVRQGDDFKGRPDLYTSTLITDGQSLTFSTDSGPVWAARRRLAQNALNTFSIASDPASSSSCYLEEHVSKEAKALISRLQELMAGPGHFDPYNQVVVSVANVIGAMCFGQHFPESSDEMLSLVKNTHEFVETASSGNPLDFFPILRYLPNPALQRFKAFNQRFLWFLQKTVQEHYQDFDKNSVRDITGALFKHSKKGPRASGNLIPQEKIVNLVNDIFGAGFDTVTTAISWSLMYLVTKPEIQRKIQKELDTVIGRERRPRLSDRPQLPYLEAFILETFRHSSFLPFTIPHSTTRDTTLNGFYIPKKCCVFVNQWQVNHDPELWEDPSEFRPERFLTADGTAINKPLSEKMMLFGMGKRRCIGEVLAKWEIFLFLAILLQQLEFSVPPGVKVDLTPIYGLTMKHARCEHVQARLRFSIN
From the text: (§2) Objective: To study the inhibitory effect of compounds on human liver microsomal cytochrome P450. Experimental procedures: In the study on inhibition of the compounds on the human liver microsomal cytochrome P450 (CYP1A2, CYP2C9, CYP2C19, CYP2D6 and CYP3A4), fused human liver microsomes were selected as a CYP450 enzyme source. […]

CYP2C19 = biological target: T2, CYP2C19 (Homo sapiens, UniProt P33261); assay: Inhibition of human liver microsomal cytochrome P450 CYP2C19; format: in vitro ADME; conditions: human liver microsomes, probe substrate, NADPH
T2 construct: fused human liver microsomes were selected as a CYP450 enzyme source; from tissue; host or cells: pooled ("fused") human liver microsomes
From the text: as §2

[2] = Pharmacokinetics in Beagle dogs, single intravenous injection; format: in vivo; conditions: male, dog, plasma, 1 mg/kg single intravenous injection
Procedure: Objective: To Study Pharmacokinetics of the Compound in Beagle Dogs
Experimental Material: Beagle Dogs (male, 8-11 kg, greater than or equal to 6 months, Marshall)
as §1, with “[…]” for “monkeys”, “Beagle dogs” for “cynomolgus monkeys”

CYP2D6 = biological target: T3, CYP2D6 (Homo sapiens, UniProt P10635); assay: Inhibition of human liver microsomal cytochrome P450 CYP2D6; format: in vitro ADME; conditions: human liver microsomes, probe substrate, NADPH
T3 construct: fused human liver microsomes were selected as a CYP450 enzyme source; from tissue; host or cells: pooled ("fused") human liver microsomes
From the text: as §2

[3] = Pharmacokinetics in SD rats, intravenous injection for 5 consecutive days; format: in vivo; conditions: male, Sprague-Dawley (SD), rat, plasma, 20 mg/kg, 20 mg/kg intravenous daily
Procedure: Objective: To study 5-day Toxicology of Compounds in SD Rats
Experimental materials: SD rats (male, 200-300 g, 7-9 weeks old, Shanghai Lingchang)
Pharmacokinetic profiles of the compound were tested by intravenous injection in rodents according to the standard protocol. In the study, the candidate compound was prepared as a clear solution, and was administered to SD rats at 20 mg/kg by single intravenous injection for 5 consecutive days. A vehicle for intravenous injection was a 10% hydroxypropyl β-cyclodextrin aqueous solution. Whole blood samples were collected at 0.033, 0.083, 0.25, 0.5, 1, 2, 4, 8, and 24 hours postdose on Day 1 and Day 5 of dosing, centrifuged at 3000 r for 10 min, and separated from supernatant to obtain plasma samples. 15 μL of plasma samples were mixed with 300 μL of acetonitrile precipitated proteins containing an internal standard, and 2 μL of the supernatant was injected by centrifugation. Plasma concentrations were quantified by LC-MS/MS analysis, and pharmacokinetic parameters, such as clearance, half-life, and area under the concentration-time curve, were calculated.

CYP3A4 = biological target: T4, CYP3A4 (Homo sapiens, UniProt P08684); assay: Inhibition of human liver microsomal cytochrome P450 CYP3A4; format: in vitro ADME; conditions: human liver microsomes, two probe substrates, NADPH
T4 construct: fused human liver microsomes were selected as a CYP450 enzyme source; from tissue; host or cells: pooled ("fused") human liver microsomes
From the text: as §2

[4] = read-out: Area under the concentration-time curve AUC
[5] = read-out: Half-time T1/2 (converted)

T3 sequence (P10635 whole entry, the tested form may be a part): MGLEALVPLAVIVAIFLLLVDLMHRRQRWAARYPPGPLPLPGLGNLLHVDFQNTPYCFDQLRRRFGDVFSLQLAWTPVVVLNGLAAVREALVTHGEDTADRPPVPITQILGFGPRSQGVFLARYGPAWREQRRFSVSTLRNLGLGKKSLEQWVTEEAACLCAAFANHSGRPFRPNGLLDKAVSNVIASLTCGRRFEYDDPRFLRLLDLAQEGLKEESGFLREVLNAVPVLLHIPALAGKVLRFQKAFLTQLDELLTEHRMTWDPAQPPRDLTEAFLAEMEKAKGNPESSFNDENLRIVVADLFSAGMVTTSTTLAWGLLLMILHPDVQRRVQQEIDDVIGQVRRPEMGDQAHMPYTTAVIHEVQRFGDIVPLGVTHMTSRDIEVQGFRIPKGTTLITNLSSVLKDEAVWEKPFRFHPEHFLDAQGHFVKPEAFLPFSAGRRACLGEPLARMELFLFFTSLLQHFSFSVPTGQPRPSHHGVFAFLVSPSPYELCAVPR
T4 sequence (P08684 whole entry, the tested form may be a part): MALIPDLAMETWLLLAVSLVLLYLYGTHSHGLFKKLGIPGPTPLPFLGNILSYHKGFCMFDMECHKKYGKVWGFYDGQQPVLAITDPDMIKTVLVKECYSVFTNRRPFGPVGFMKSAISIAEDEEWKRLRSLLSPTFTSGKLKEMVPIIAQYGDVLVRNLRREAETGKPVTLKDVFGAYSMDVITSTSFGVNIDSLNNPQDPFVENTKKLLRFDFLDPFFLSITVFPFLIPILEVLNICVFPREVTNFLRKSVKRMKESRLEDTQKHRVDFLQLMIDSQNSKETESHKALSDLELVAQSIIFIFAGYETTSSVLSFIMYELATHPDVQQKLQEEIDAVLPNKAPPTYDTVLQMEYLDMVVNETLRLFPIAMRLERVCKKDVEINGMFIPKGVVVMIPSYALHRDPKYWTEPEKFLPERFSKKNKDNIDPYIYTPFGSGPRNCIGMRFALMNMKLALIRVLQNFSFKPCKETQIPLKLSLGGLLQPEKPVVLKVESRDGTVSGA
T2 sequence (P33261 whole entry, the tested form may be a part): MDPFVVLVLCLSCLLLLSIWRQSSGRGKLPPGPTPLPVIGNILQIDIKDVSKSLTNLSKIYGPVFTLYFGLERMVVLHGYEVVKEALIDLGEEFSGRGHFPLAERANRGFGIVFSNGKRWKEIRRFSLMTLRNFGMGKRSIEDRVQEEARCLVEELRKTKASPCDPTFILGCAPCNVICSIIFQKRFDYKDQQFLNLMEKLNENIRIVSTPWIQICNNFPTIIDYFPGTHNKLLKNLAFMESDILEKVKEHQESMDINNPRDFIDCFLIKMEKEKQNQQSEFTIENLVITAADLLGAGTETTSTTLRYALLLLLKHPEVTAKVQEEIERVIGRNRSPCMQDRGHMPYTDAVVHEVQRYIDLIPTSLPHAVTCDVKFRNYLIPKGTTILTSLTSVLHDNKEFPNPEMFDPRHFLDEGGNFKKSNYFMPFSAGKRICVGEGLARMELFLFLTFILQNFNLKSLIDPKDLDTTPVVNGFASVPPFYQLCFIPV

clearance [1]: 6.2 mL/min/kg
AUC [1, 4]: 9.16 µM·h
half-life [1, 5]: 3.81 h
IC50 (CYP1A2): > 50 µM
IC50 (CYP2C19): > 50 µM
clearance [2]: 15 mL/min/kg
AUC [2, 4]: 3.71 µM·h
half-life [2, 5]: 2.17 h
IC50 (CYP2D6): > 50 µM
clearance ([3]; Day 1): 7.11 mL/min/kg
AUC ([3]; Day 1, read-out: Area under the concentration-time curve AUC): 156 µM·h
half-life ([3]; Day 1, read-out: Half-time T1/2 (converted)): 2.45 h
clearance ([3]; Day 5): 9.04 mL/min/kg
AUC ([3]; Day 5, read-out: Area under the concentration-time curve AUC): 123 µM·h
half-life ([3]; Day 5, read-out: Half-time T1/2 (converted)): 2.72 h
IC50 (CYP3A4): > 50 µM
Structure (SMILES): CC(C)(O)c1ccc(-c2cnc(C(C)(C)O)c(N)c2)cc1N [Compound 3]

From patent US12479823B2, “Compound for use in retinal diseases” (ZHUHAI UNITED LABORATORIES CO., LTD., priority 2018, dated 2025)
